From patent US20080261994A1, “CYCLOPROPANE COMPOUNDS AND PHARMACEUTICAL USE THEREOF” (Japan Tobacco Inc., priority 2003, published 2008)
Read-outs that look alike come from different tables or passages of the source.

Legend:
Type in all cases: biochemical
MMP-1 = target: T1, MMP-1 (Homo sapiens, UniProt P03956); assay: MMP-1 inhibitory action (Type I collagen Activity Measurement kit, FITC-labeled collagen type I)
T1 sequence (P03956 100-469): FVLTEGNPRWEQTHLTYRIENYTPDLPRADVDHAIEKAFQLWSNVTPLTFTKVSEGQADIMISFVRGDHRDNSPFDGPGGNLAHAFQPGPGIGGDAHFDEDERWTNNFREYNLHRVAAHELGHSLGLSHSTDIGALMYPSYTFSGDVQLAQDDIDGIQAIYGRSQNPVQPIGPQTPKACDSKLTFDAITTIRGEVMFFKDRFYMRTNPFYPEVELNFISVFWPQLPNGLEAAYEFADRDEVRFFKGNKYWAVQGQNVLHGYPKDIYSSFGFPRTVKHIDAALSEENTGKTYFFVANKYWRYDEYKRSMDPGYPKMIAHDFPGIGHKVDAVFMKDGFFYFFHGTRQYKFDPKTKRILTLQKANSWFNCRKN

Recombinant Human MMP-13 = target: T2, Recombinant Human MMP-13 (Homo sapiens, UniProt P45452); assay: MMP-13 inhibitory activity (MMP-13 specific fluorescent substrate with quencher)
T2 construct: purchased R&D systems 511-MM
In short: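 IC50 (μM) derived from % inhibition, normalised to wells without enzyme and without inhibitor, fluorescence read at 325/405 nm. Enzyme and compound preceded addition of the quenched 7-MCA…DPA substrate; Tris-HCl buffer, 25 °C for 1 h, acetic-acid stop.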

aggrecanase-1 = target: T3, aggrecanase-1 (Homo sapiens, UniProt O75173); assay: Aggrecanase-1 inhibitory action (Particle Assay, GAG release from aggrecan-containing polyacrylamide particles)
T3 sequence (O75173 213-837): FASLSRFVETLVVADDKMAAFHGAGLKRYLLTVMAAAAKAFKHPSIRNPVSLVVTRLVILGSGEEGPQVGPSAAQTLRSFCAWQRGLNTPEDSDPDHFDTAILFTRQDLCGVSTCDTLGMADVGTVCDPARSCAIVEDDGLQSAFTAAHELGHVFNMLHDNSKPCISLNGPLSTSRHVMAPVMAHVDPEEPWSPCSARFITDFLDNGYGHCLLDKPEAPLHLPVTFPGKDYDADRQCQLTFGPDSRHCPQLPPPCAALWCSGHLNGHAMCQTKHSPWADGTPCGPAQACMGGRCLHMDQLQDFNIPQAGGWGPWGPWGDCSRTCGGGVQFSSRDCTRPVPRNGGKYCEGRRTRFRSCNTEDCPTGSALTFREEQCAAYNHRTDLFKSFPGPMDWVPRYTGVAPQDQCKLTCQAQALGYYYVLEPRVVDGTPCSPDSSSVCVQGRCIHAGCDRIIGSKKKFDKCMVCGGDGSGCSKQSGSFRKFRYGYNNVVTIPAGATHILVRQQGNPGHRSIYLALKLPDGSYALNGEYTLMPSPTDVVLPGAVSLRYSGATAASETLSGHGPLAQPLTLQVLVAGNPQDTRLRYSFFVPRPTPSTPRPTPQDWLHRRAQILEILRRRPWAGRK
In short: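 Readout was dimethylmethylene blue absorbance (595 nm) of glycosaminoglycan liberated into supernatant, calibrated with whale chondroitin sulfate. Substrate was aggrecan in polyacrylamide particles, digested 15 h at 37° C in Tris-HCl; TC50 (μM) derived from inhibition relative to no-enzyme and no-inhibitor controls.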

[1] = MMP-1 inhibitory action, FITC-labeled collagen type I, 37° C. for 3 hr, read-out: IC50 MMP1 (Experimental Example 2)
[2] = Recombinant Human MMP-13, fluorescent substrate, 25° C. for 1 h, read-out: IC50 MMP13 (Experimental Example 3)
[3] = aggrecanase-1 inhibitory action, read-out: IC50 AG1 (Experimental Example 1)
[4] = Experimental Example 2, read-out: IC50 MMP1
[5] = Experimental Example 3, read-out: IC50 MMP13
[6] = Experimental Example 1, read-out: IC50 AG1

| IC50 (MMP-1; [1]) | IC50 (Recombinant Human MMP-13; [2]) | IC50 (aggrecanase-1; [3]) | IC50 (MMP-1; [4]) | IC50 (Recombinant Human MMP-13; [5]) | IC50 (aggrecanase-1; [6]) | SMILES |
| --- | --- | --- | --- | --- | --- | --- |
| ≥ 10000 nM | < 1000 nM | ≥ 1000 nM | – | – | – | O=C(O)C1(CS(=O)(=O)N2CCN(c3ccc(C(F)(F)F)cn3)CC2)CC1c1ccccc1 (stereo not drawn) [Example 2-185] |
| – | – | – | ≥ 1000 nM | ≥ 1000 nM | < 1000 nM | C[C@]1(c2ccccc2)C[C@@]1(NS(=O)(=O)c1ccc(-c2ncc(F)cc2F)s1)C(=O)O [Example 2-466] |
| < 1000 nM | < 100 nM | < 100 nM | – | – | – | O=C(O)[C@]1(NS(=O)(=O)c2ccc(-c3cc(C(F)(F)F)on3)s2)[C@H](CO)[C@@H]1c1ccccc1 (relative stereo) [Example 2-10, (1R*,2R*,3R*)-2-hydroxymethyl-3-phenyl-1-[5-(5-trifluoromethyl-isoxazol-3-yl)-thiophene-2-sulfonylamino]-cyclopropanecarboxylic acid] |
| – | – | – | ≥ 10000 nM | < 100 nM | < 1000 nM | O=C1OCCN1CC1(c2ccccc2)CC1(NS(=O)(=O)c1ccc(-c2ccc(Cl)cc2)s1)C(=O)O (stereo not drawn) [Example 2-362] |
| ≥ 1000 nM | < 100 nM | < 100 nM | – | – | – | O=C(Cc1cccc(C2CC2(NS(=O)(=O)c2ccc(-c3ccc(Cl)cc3)s2)C(=O)O)c1)N1CCOCC1 (stereo not drawn) [Example 2-190] |
| – | – | – | < 1000 nM | < 100 nM | < 100 nM | NC(=O)CCc1ccc([C@H]2C[C@@]2(NS(=O)(=O)c2ccc(-c3cc(C(F)(F)F)on3)s2)C(=O)O)cc1 [Example 2-278] |
| ≥ 10000 nM | < 100 nM | < 1000 nM | – | – | – | CC(C)(CO)NC(=O)c1cccc(C2CC2(NS(=O)(=O)c2ccc(-c3ccc(Cl)cc3)s2)C(=O)O)c1 (stereo not drawn) [Example 2-74] |
| ≥ 10000 nM | < 100 nM | < 100 nM | – | – | – | O=C(O)C1(NS(=O)(=O)c2ccc(-c3ccc(Cl)cn3)s2)CC1c1cccc(Cn2cccn2)c1 (stereo not drawn) [Example 2-56] |
| ≥ 1000 nM | < 100 nM | < 100 nM | – | – | – | O=C(O)[C@]1(NS(=O)(=O)c2ccc(-c3cc(C(F)(F)F)on3)s2)C[C@@H]1c1cccc(Br)c1 [Example 2-169] |
| ≥ 1000 nM | < 100 nM | < 100 nM | – | – | – | O=C(O)COc1cccc(C2CC2(NS(=O)(=O)c2ccc(-c3ccc(Cl)cc3)cc2)C(=O)O)c1 (stereo not drawn) [Example 1-119] |
| – | – | – | ≥ 10000 nM | ≥ 1000 nM | ≥ 1000 nM | O=C(O)C1(NS(=O)(=O)c2ccc(-c3cc(C(F)(F)F)on3)s2)CC1(CN1CCCCC1)c1ccccc1 (stereo not drawn) [Example 2-330] |
| – | – | – | ≥ 10000 nM | ≥ 1000 nM | ≥ 1000 nM | C[C@]1(c2ccccc2)C[C@@]1(NS(=O)(=O)c1ccc(-c2cc(Cl)cc(Cl)c2)s1)C(=O)O [Example 2-448] |
| ≥ 1000 nM | < 100 nM | < 100 nM | – | – | – | COC(=O)CCc1cccc(C2CC2(NS(=O)(=O)c2ccc(-c3ccc(Cl)cc3)s2)C(=O)O)c1 (stereo not drawn) [Example 2-208] |
| ≥ 1000 nM | < 100 nM | < 1000 nM | – | – | – | CN(C)C(=O)CCc1ccccc1C1CC1(NS(=O)(=O)c1ccc(-c2cc(C(F)(F)F)on2)s1)C(=O)O (stereo not drawn) [Example 2-231] |
| – | – | – | ≥ 1000 nM | < 1000 nM | < 1000 nM | COCC1(c2ccccc2)CC1(NS(=O)(=O)c1ccc(-c2ccc(Cl)cc2)s1)C(=O)O (stereo not drawn) [Example 2-386] |
| ≥ 1000 nM | < 100 nM | < 100 nM | – | – | – | O=C(CCc1cccc(C2CC2(NS(=O)(=O)c2ccc(-c3cc(C(F)(F)F)on3)s2)C(=O)O)c1)N1CCOCC1 (stereo not drawn) [Example 2-234] |
| – | – | – | ≥ 1000 nM | < 100 nM | < 1000 nM | CC1[C@H](c2ccccc2)[C@]1(NS(=O)(=O)N1CCN(c2ccc(Cl)cc2)CC1)C(=O)O (stereo partly drawn) [Example 2-426] |
| – | – | – | ≥ 1000 nM | ≥ 1000 nM | ≥ 1000 nM | CC1[C@H](c2ccccc2)[C@]1(NS(=O)(=O)N1CCN(C/C=C/c2ccccc2)CC1)C(=O)O (stereo partly drawn) [Example 2-537] |
| – | – | – | < 1000 nM | < 1000 nM | ≥ 10000 nM | C#Cc1ccc(S(=O)(=O)N[C@@]2(C(=O)O)C(C)[C@@H]2c2ccccc2)s1 (stereo partly drawn) [Example 2-424] |

| IC50 (MMP-1; [1]) | IC50 (Recombinant Human MMP-13; [2]) | IC50 (aggrecanase-1; [3]) | IC50 (MMP-1; [4]) | IC50 (Recombinant Human MMP-13; [5]) | IC50 (aggrecanase-1; [6]) | SMILES |
| --- | --- | --- | --- | --- | --- | --- |
| – | – | – | < 1000 nM | < 100 nM | < 1000 nM | CCOC(=O)CSCC1(c2ccccc2)CC1(NS(=O)(=O)c1ccc(-c2cc(C(F)(F)F)on2)s1)C(=O)O (stereo not drawn) [Example 2-409] |
| – | – | – | ≥ 1000 nM | < 1000 nM | < 1000 nM | O=C(NCC1(c2ccccc2)CC1(NS(=O)(=O)c1ccc(-c2ccc(Cl)cc2)s1)C(=O)O)c1ccccn1 (stereo not drawn) [Example 2-368] |
| – | – | – | < 1000 nM | < 100 nM | < 100 nM | CC1[C@H](c2ccccc2)[C@]1(NS(=O)(=O)c1ccc(-c2ccc(Cl)c(N)c2)s1)C(=O)O (stereo partly drawn) [Example 2-496] |
| ≥ 10000 nM | < 1000 nM | < 100 nM | – | – | – | O=C(O)C1(NS(=O)(=O)c2ccc(-c3ccc(Cl)cc3)s2)CC1(CCCN1CCOCC1)c1ccccc1 (stereo not drawn) [Example 2-249] |
| ≥ 1000 nM | < 1000 nM | < 100 nM | – | – | – | C[C@]1(c2ccccc2)C[C@@]1(NS(=O)(=O)c1ccc(-c2ccc(Cl)cn2)s1)C(=O)O [Example 2-131] |
| ≥ 10000 nM | ≥ 1000 nM | < 1000 nM | – | – | – | O=C(O)[C@@]1(NS(=O)(=O)c2ccc(-c3ccc(Cl)cc3)s2)C[C@H]1c1ccccc1Br [Example 2-168] |
| – | – | – | ≥ 1000 nM | ≥ 1000 nM | ≥ 1000 nM | CN(c1ccccc1)c1ccc(S(=O)(=O)N[C@@]2(C(=O)O)C[C@]2(C)c2ccccc2)s1 [Example 2-515] |
| – | – | – | ≥ 1000 nM | ≥ 1000 nM | ≥ 1000 nM | C[C@]1(c2ccccc2)C[C@@]1(NS(=O)(=O)c1ccc(/C=C\C(F)(F)F)s1)C(=O)O [Example 2-563] |
| ≥ 10000 nM | ≥ 10000 nM | ≥ 10000 nM | – | – | – | CC(C)NC(=O)c1ccc(S(=O)(=O)NC2(C(=O)O)CC2c2ccccc2)s1 (stereo not drawn) [Example 2-94] |
| – | – | – | < 100 nM | < 100 nM | < 100 nM | CC(=O)c1cnn(-c2ccc(S(=O)(=O)N[C@@]3(C(=O)O)C(C)[C@@H]3c3ccccc3)s2)c1 (stereo partly drawn) [Example 2-546] |
| ≥ 1000 nM | ≥ 1000 nM | ≥ 1000 nM | – | – | – | CC1[C@H](c2ccccc2)[C@]1(NS(=O)(=O)N1CCN(C(=O)Nc2ccccc2)CC1)C(=O)O (stereo partly drawn) [Example 2-11, (1S,2R,3R)-2-methyl-3-phenyl-1-(4-phenylcarbamoyl-piperazine-1-sulfamoylamino)-cyclopropanecarboxylic acid] |
| ≥ 10000 nM | < 1000 nM | < 1000 nM | – | – | – | O=C(O)[C@]1(NS(=O)(=O)c2ccc(C3=NOC(O)(C(F)(F)F)C3)s2)C[C@@H]1c1ccccc1 (stereo partly drawn) [Example 2-35] |
| – | – | – | ≥ 1000 nM | ≥ 1000 nM | ≥ 1000 nM | CCNC(=O)N1CCN(S(=O)(=O)N[C@@]2(C(=O)O)C[C@@H]2c2ccccc2)CC1 [Example 2-512] |
| – | – | – | < 1000 nM | < 100 nM | < 100 nM | O=C(O)C1(NS(=O)(=O)c2ccc(-c3cc(C(F)(F)F)on3)s2)C2CCc3ccccc3C21 (stereo not drawn) [Example 2-351] |
| – | – | – | ≥ 10000 nM | < 1000 nM | < 1000 nM | O=C(CCO)NCC1(c2ccccc2)CC1(NS(=O)(=O)c1ccc(-c2ccc(Cl)cc2)s1)C(=O)O (stereo not drawn) [Example 2-395] |
| ≥ 1000 nM | < 100 nM | < 100 nM | – | – | – | O=C(Cc1cccc(C2CC2(NS(=O)(=O)c2ccc(-c3cc(C(F)(F)F)on3)s2)C(=O)O)c1)N1CCC(O)CC1 (stereo not drawn) [Example 2-222] |
| ≥ 10000 nM | ≥ 10000 nM | ≥ 10000 nM | – | – | – | O=C(O)C1(NS(=O)(=O)c2ccc(S(=O)(=O)c3ccccc3)s2)CC1c1ccccc1 (stereo not drawn) [Example 2-81] |
| ≥ 10000 nM | < 1000 nM | < 1000 nM | – | – | – | CC(C)(C)OC(=O)Nc1ccccc1C1CC1(NS(=O)(=O)c1ccc(-c2ccc(Cl)cc2)s1)C(=O)O (stereo not drawn) [Example 2-217] |
